# Results as given in PMC3523108 (European biophysics journal : EBJ, 2009).
# Target: bovine serum albumin (BSA) (Bos taurus, UniProt P02769)
# Assay type: binding
# Settings: slope of log((F0−F)/F) vs log[Q], Eq. 2; sensitizer 10^−6–7 × 10^−6 M
# Chain of bovine serum albumin (BSA) (P02769 25-607): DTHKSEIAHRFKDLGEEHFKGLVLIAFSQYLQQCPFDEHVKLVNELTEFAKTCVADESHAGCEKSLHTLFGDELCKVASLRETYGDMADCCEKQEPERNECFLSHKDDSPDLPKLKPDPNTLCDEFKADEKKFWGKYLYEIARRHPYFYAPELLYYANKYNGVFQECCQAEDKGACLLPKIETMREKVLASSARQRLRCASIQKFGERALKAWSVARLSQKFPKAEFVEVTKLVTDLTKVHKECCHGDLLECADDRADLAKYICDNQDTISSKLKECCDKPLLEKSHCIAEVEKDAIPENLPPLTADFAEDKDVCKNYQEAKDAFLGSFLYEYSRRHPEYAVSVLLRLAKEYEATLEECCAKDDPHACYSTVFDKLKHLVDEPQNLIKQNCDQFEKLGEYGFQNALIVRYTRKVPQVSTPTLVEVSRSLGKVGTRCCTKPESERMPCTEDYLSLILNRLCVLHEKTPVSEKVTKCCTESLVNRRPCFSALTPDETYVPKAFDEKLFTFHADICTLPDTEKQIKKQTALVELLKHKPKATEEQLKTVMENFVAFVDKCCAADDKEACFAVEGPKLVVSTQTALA
structure (smiles),measurement,value
"C=CC1=C(C)c2cc3[nH]c(cc4nc(cc5[nH]c(cc1n2)c(C)c5CCC(=O)O)C(CCC(=O)O)=C4C)c(C)c3C=C [PP3, Protoporphyrin IX]",n (number of binding sites in BSA),0.993 ± 0.082
